For test [1], the system named is Apt5.1-24 (DNA, aptamer) GCGTAGATCGAGGCTATTAGGAGG
Kind of test: fluorescence enhancement. To be noted: 150 mM Na+; less fluorescent than Apt5; 1 µM DNA, 5 µM ThT; 50 mM Tris, pH 7.4.

Test [2] concerns Apt3 (DNA, aptamer) GCACGTCCAGGACGGGGGAGCGGTGCTAGTGTCTGGCAGG
Description: fluorescence enhancement. Conditions: 150 mM Na+; 20x enhancement; 1 µM DNA, 5 µM ThT; 50 mM Tris, pH 7.4.

For test [3], the system named is Apt4 (DNA, aptamer) GACCGGAGGGGCATCAGCTGTCCGTGAGGTTGCCGCGAGT
Description: fluorescence enhancement. To be noted: 150 mM Na+; 14x enhancement; 1 µM DNA, 5 µM ThT; 50 mM Tris, pH 7.4.

The subject of test [4] is Apt5 (DNA, aptamer) GCGTAGATCGAGGCTATTAGGAGGTGGGATGCGTCAGGGC
Kind of test: fluorescence enhancement. Conditions: 150 mM Na+; 61x enhancement; 1 µM DNA, 5 µM ThT; 50 mM Tris, pH 7.4.

Test [5] relates to Apt5.17-40 (DNA, aptamer) TTAGGAGGTGGGATGCGTCAGGGC
Description: fluorescence enhancement. To be noted: 150 mM Na+; less fluorescent than Apt5; 1 µM DNA, 5 µM ThT; 50 mM Tris, pH 7.4.

Test [6] deals with Apt5.13-36 (DNA, aptamer) GCTATTAGGAGGTGGGATGCGTCA
Kind of test: fluorescence enhancement. To be noted: 150 mM Na+; less fluorescent than Apt5; 1 µM DNA, 5 µM ThT; 50 mM Tris, pH 7.4.

Test [7] relates to Apt2 (DNA, aptamer) GACCGGAGGGGCATCAGCTGTCCGTGAGGTTGCCGCGAG
Description: fluorescence enhancement. To be noted: 150 mM Na+; 13x enhancement; 1 µM DNA, 5 µM ThT; 50 mM Tris, pH 7.4.

Test [8] relates to Apt1 (DNA, aptamer) TCGCGTGTGCAGAGGCGAGTAGGTGGGAGATCTGTCTGGG
Description: fluorescence enhancement. Conditions: 150 mM Na+; 9x enhancement; 1 µM DNA, 5 µM ThT; 50 mM Tris, pH 7.4.

Test [9] deals with Primer-215 (DNA, single strand) ATGACCTATGAATTGACAGAC
Kind of test: fluorescence enhancement. To be noted: no fluorescence; 5 µM ThT, 1 µM oligonucleotide; text says miR-215 (Primer-215).

Test [10] concerns PW17Ext (DNA, G4) GAGGAGGAGGAGGAGAGGGTAGGGCGGGTTGGG
Description: fluorescence melting. To be noted: 150 mM Na+, 10 mM K+; 50 mM Tris, pH 7.4; complex more stable than without K+.

In test [11] the test system is Apt5.9-32 (DNA, aptamer) CGAGGCTATTAGGAGGTGGGATGC
Kind of test: fluorescence titration, 510 nm. To be noted: 150 mM Na+; 50 mM Tris, pH 7.4; 1 µM ThT, aptamer 2.5-50 µM; mean of three.

The subject of test [12] is Apt5.5-28 (DNA, aptamer) AGATCGAGGCTATTAGGAGGTGGG
Description: fluorescence enhancement. Conditions: 150 mM Na+; less fluorescent than Apt5; 1 µM DNA, 5 µM ThT; 50 mM Tris, pH 7.4.

Test [13] deals with ThT.2-2 (DNA, aptamer) GACGACGACACAGGATTAATCTTATTAGTCGTC
Description: fluorescence enhancement. Conditions: less fluorescent than Apt5.9-32; several concentrations.

Structures are written as SMILES.

For `Cc1ccc2c(c1)sc(-c1ccc(N(C)C)cc1)[n+]2C`, the binding entry in test [1] was “weak”; in test [2], “yes”; in test [3], “yes”; in test [4], “yes”; in test [5], “weak”; in [6], “weak”. In addition, the binding result in test [7] is “yes”; in [8], “yes”; in test [9], “no”; in [10], “yes”; in test [12], “weak”; in test [13], “yes”. In test [11], this molecule registered a dissociation constant of 6 ± 2 µM.

These data come from article PMC7900183 (2021).
